{"source": "patent US6492381B1", "about": "“Tricyclic carbamate compounds useful for inhibition of G-protein function and for treatment of proliferative diseases” (Schering Corp., priority 1993, dated 2002)", "key": {"[1]": {"tested_on": "disordered cell growth induced by transforming Ras-CVLS in COS monkey kidney cells", "test": "Cell-based assay: disordered cell growth induced by transforming Ras in COS cells (microscopy)", "source_text": "(§1) 2. Cell-Based Assay: Transient expression of val^12-Ha-Ras-CVLS and val^12-Ha-Ras-CVLL in COS monkey kidney cells: Effect of farnesyl protein transferase inhibitors on Ras processing and on disordered cell growth induced by transforming Ras.\n(§2) COS monkey kidney cells were transfected by electroporation with the plasmid pSV-SPORT (Gibco/BRL) containing a cDNA insert encoding either Ras-CVLS or Ras-CVLL, leading to transient overexpression of a Ras substrate for either farnesyl protein transferase or geranylgeranyl protein transferase I, respectively (see above).\n(§3) Following electroporation, cells were plated into 6-well tissue culture dishes containing 1.5 ml of Dulbecco's-modified Eagle's media (GIBCO, Inc.) supplemented with 10% fetal calf serum and the appropriate farnesyl protein transferase inhibitors. After 24 hours, media was removed and fresh media containing the appropriate drugs was re-added.\n48 hours after electroporation cells were examined under the microscope to monitor disordered cell growth induced by transforming Ras. Cells expressing transforming Ras become more rounded and refractile and overgrow the monolayer, reminiscent of the transformed phenotype. […]"}, "[2]": {"tested_on": "C-f-1 [mouse fibroblast transformed with c-fos oncogene]", "test": "In vivo anti-tumor study, C-f-1 s.c. tumor", "conditions": "C-f-1 s.c. in athymic nu/nu mice, BID", "source_text": "(§4) In Vivo Anti-Tumor Studies\n(§5) Tumor cells (5×10^5 to 8×10^6 of M27 [mouse Lewis lung carcinoma], A431 [human epidermal carcinoma] or SW620 [human colon adenocarcinoma (lymph node metastasis)]) are innoculated subcutaneously into the flank of 5-6 week old athymic nu/nu female mice. For the C-f-1 [mouse fibroblast transformed with c-fos oncogene] tumor model, 2 mm^3 tumor fragments are transplanted subcutaneously into the flank of 5-6 week old athymic nu/nu female mice. Tumor bearing animals are selected and randomized when the tumors are established. Animals are treated with vehicle (beta cyclodextran for i.p. or corn oil for p.o.) only or compounds in vehicle twice a day (BID) for 5 (1-5) or 7 (1-7) days per week for 2 (×2) or 4 (×4) weeks. The percent inhibition of tumor growth relative to vehicle controls are determined by tumor measurements."}, "[3]": {"tested_on": "Ras-CVLS processing in COS monkey kidney cells", "test": "Cell-based assay: Ras-CVLS processing in transfected COS cells (immunoblot)", "conditions": "Primates; inhibition of Ras-CVLS processing in Ras-transfected COS cells", "source_text": "as §1, §2, §3\n48 hours after electroporation cells were examined under the microscope to monitor disordered cell growth induced by transforming Ras. Cells expressing transforming Ras become more rounded and refractile and overgrow the monolayer, reminiscent of the transformed phenotype. Cells were then photographed, washed twice with 1 ml of cold phosphate-buffered saline (PBS) and removed from the dish by scraping with a rubber policeman into 1 ml of a buffer containing 25 mM Tris, pH 8.0; 1 mM ethylenediamine tetraacetic acid; 1 mM phenylmethylsulfonyl fluoride; 50 μM leupeptin; and 0.1 μM pepstatin. Cells were lysed by homogenization and cell debris was removed by centrifugation at 2000×g for 10 min.\nCellular protein was precipitated by addition of ice-cold trichloroacetic acid and redissolved in 100 μl of SDS-electrophoresis sample buffer. Samples (5-10 μl) were loaded onto 14% polyacrylamide minigels (Novex, Inc.) and electrophoresed until the tracking dye neared the bottom of the gel. Proteins resolved on the gels were electroblotted onto nitrocellulose membranes for immunodetection.\nMembranes were blocked by incubation overnight at 4° C. in PBS containing 2.5% dried milk and 0.5% Tween-20 and then incubated with a Ras-specific monoclonal antibody, Y13-259 (Furth, M. E., et al., (1982), Monoclonal antibodies to the p21 products of the transforming gene of Harvey murine sarcome virus and of the cellular ras gene family, J. Virol. 43: 294-304), in PBS containing 1% fetal calf serum for one hour at room temperature. After washing, membranes were incubated for one hour at room temperature with a 1:5000 dilution of secondary antibody, rabbit anti-rat IgG conjugated to horseradish peroxidase, in PBS containing 1% fetal calf serum. The presence of processed and unprocessed Ras-CVLS or Ras-CVLL was detected using a calorimetric peroxidase reagent (4-chloro-1-naphthol) as described by the manufacturer (Bio-Rad)."}, "[4]": {"tested_on": "M27 [mouse Lewis lung carcinoma]", "test": "In vivo anti-tumor study, M27 s.c. tumor", "conditions": "po", "source_text": "as §4, §5"}}, "data": [{"smiles": "CCOC(=O)N1CCC(C2(F)c3ccc(Cl)cc3CCc3cccnc32)CC1", "note": "(stereo not shown) [Compound 530.00]", "values": [{"measurement": "response to oncogenic Ras-CVLS (overgrowth of monolayer, dense foci)", "setting": "[1]; at 6.6 μg/ml", "value": "inhibited"}, {"measurement": "response to oncogenic Ras-CVLS (overgrowth of monolayer, dense foci)", "setting": "[1]; at 20 μg/ml", "value": "inhibited"}, {"measurement": "% Inhibition (tumor growth relative to vehicle controls)", "setting": "[2]; ip, 1-5, × 2", "value": 17.8, "unit": "%"}, {"measurement": "% Inhibition (tumor growth relative to vehicle controls)", "setting": "[2]; po, 1-5, × 4", "value": 69, "unit": "%"}, {"measurement": "IC50", "setting": "[3]", "value": 15.4, "unit": "µM"}, {"measurement": "average % tumor inhibition", "setting": "[4]; M27, 100 MPK, 14/wk, ×4", "value": 37, "unit": "%"}, {"measurement": "% Inhibition (tumor growth relative to vehicle controls)", "setting": "[4]; M27 s.c. in athymic nu/nu mice, BID, 1-7, × 4", "value": 49, "unit": "%"}]}]}
